Data taken from patent US20080119483A1, “COMPOSITIONS AND METHODS FOR INHIBITING PROTOZOAN GROWTH” (priority 2006, published 2008).
“Also recorded” adds a separate entry of the source. Like-named read-outs stand apart in the source and are kept apart here.

What was measured:
[1] = system: L. major spt2^− promastigotes; experiment: microbe, parasite or virus in culture; assay type: cell-based, Leishmania major; conditions: for EC50: Leishmania major, 48 h, read-out: EC50 in spt2^−; for EC50 (WT)/EC50 (spt2^−): ratio
Experimental: (§1) Log phase L. major LV39 WT and spt2 promastigotes were inoculated at 1.0×10^5 cells/ml and culture densities were determined 48 hours later.
(§2) Wild type (WT) L. major LV39 clone 5 (Rho/SU/59/P), FV1 (MOHM/IL/80/Friedlin virulent clone 1), spt2^− (Δspt2::HYG/Dspt2::PAC), ads1^− (Δads1::HYG/Dads1::SAT), and spt2^−/+SPT2 (Δspt2::HYG/Dspt2::PAC/+pXG-SPT2) cells were grown in M199 with 10% FBS and supplements as described [Zhang, et al., 2003; Kapler, et al., 1990]. For growth inhibition assays, promastigotes were inoculated at 1.0×10^5 cells/ml (in T25 flasks, 5 ml of medium per flask) in various concentrations of drugs. All cultures contained equivalent amount of DMSO or methanol (0.1% or less, from drug stocks). After 48 or 96 (for ads1^− only) hours, culture densities were determined using a Coulter counter (Z1, Beckman) and effects of drugs on growth were assessed in relative to cultures grown in the absence of drugs.

[2] = system: L. major spt2^− promastigotes; experiment: Composition of free sterols by GC/MS, spt2^− promastigotes; assay type: cell-based, Leishmania major; conditions: 48 hours
Experimental: (§3) Log phase L. major LV39 WT and spt2^− promastigotes were grown in the presence or absence of ITZ or CLT. Culture densities were determined 48 hours later and total lipids were extracted and the composition of free sterols was determined by GC/MS as described in Materials and Methods. ND: not detectable. Each experiment was repeated at least 3 times and results from one representative set were shown.
(§4) Here WT and spt2^− parasites were grown in various concentrations of ITZ (0.001 nM to 1 μM) or CLT (10 nM to 5 μM). Effects of ITZ and CLT on growth, sterol composition and DRM were analyzed after 48 hours. Basically, culture densities were determined using a particle counter and drugs' effects on growth were assessed in comparison to control cells (no drug); sterol lipids were extracted and analyzed by GC/MS and the percentage of 14-methylfecosterol (among all detectable sterol lipids) was used to reflect changes in sterol composition (see Table 2). DRMs were also isolated and the percentage of GP63 that were insoluble at 4° C. was used as an indicator for the integrity of DRM (see FIG. 2). Two to four independent experiments were performed and the averaged results were plotted in FIG. 3.
(§5) Total lipids were extracted using the Folch's method [Folch, et al., 1957]. Briefly, promastigotes were harvested by centrifugation and washed once with PBS. Pellets were resuspended in chloroform:methanol (2:1) at 1.0×10^8 cells/ml with the addition of cholesta-3,5-diene (Sigma-Aldrich, FW 368.7) at 0.5 mg/10^8 cells (6.6×10^7/cell). After vortexing for 30 s, cell debris was removed by centrifugation (1000 g for 10 min) and samples were washed with 0.2 volume of 0.9% NaCl. After centrifugation, supernatants were removed and the organic phase solutions were dried under a stream of nitrogen. Samples were then dissolved in chloroform:methanol (1:2) at 1.0×10^9 cells/ml.
(§6) Electron impact gas chromatography/mass spectrometry (GC/MS) analyses of sterol lipids were performed on a Finnigan (San Jose, Calif.) SSQ-7000 single-stage quadrupole mass spectrometer with a Varian (Walnut Creek, Calif.) 3400 GC, which is controlled by Finnigan ICIS software operated on a DEC alpha station. The extracts in solution […] were injected in a splitless mode and analyzed by GC on a Restek (Bellefonte, Pa.) RTX-5 column (15 m, 0.33 mm id, […]). The initial temperature of GC was set at 80° C. for 1 min, increased to 220° C. at a rate of 50° C./min, and then raised to a final temperature of 280° C. at a rate of 10° C./min. The temperatures of the injector, transfer line of the GC column, and of the ion-source were set at 280° C., 280° C., and 240° C., respectively. The full scan mass spectra (50 to 500 Dalton) were acquired at a rate of 1 scan/0.25 Sec.

[3] = system: L. major LV39 WT promastigotes; experiment: microbe, parasite or virus in culture; assay type: cell-based, Leishmania major; conditions: for EC50: Leishmania major
Experimental: as §1, §2
A classical isobologram was constructed by plotting EC50s of drugs either alone or in combination.

[4] = system: L. major spt2^− promastigotes; experiment: Detergent resistant membrane fractions (insoluble GP63), spt2^− promastigotes; assay type: cell-based, Leishmania major
Experimental: (§7) Detergent resistant membrane fractions (DRMs) were prepared using Triton X-100 from L. major promastigotes as previously described [Zhang, et al., 2003. Such DRMs are usually enriched for raft-associated materials and have been used to characterize rafts [London, et al., 2000; Brown, et al., 1998]. A typical marker for a raft in Leishmania parasites is GP63, a GPI-anchored metalloprotease, which can be detected from DRM samples by western-blot [Zhang, et al., 2003].
as §4, with “DRMs were also isolated and the percentage of GP63 that were insoluble at 4° C. was used as an indicator for the integrity of DRM (see FIG. 2). Two to four independent experiments were performed and the averaged results were plotted in FIG. 3.” left out
(§8) Detergent resistant membrane fractions (DRMs) were isolated and a western blot with a monoclonal antibody again Leishmania GP63 #235 was performed as previously described [Zhang, et al., 2003]. Percentages of GP63 in soluble and insoluble fraction after extractions at 4° C. were determined using a Fuji FLA5000 phosphoimager.

[5] = system: L. major LV39 WT promastigotes; experiment: Detergent resistant membrane fractions (insoluble GP63), WT promastigotes; assay type: cell-based, Leishmania major
Experimental: as §7
as §4, with “DRMs were also isolated and the percentage of GP63 that were insoluble at 4° C. was used as an indicator for the integrity of DRM (see FIG. 2). Two to four independent experiments were performed and the averaged results were plotted in FIG. 3.” left out
as §8

[6] = system: L. major LV39 WT promastigotes; experiment: Composition of free sterols by GC/MS, WT promastigotes; assay type: cell-based, Leishmania major; conditions: 48 hours
Experimental: as §3, §4, §5, §6

[7] = system: Leishmania amastigotes growing in murine macrophages; experiment: Amastigotes growing in murine macrophages; assay type: cell-based; conditions: preliminary results, data not shown
[8] = system: L. major ads1^− promastigotes; experiment: Growth inhibition assay, EPL-null ads1^− mutant versus FV1 WT; assay type: cell-based, Leishmania major; conditions: 96 hours for ads1^−
Experimental: as §2

[9] = system: L. major spt2^− promastigotes; experiment: Flagellar localization of FcaBP-HA (immunofluorescence), spt2^− promastigotes; assay type: cell-based, Leishmania major; conditions: concentration 5˜10 times of EC50 for 20 hours, data not shown
[10] = 48 h, LV39 WT promastigotes, 48 hours, read-out: EC50 in WT

Compound: CCC(C)n1ncn(-c2ccc(N3CCN(c4ccc(OCC5COC(Cn6cncn6)(c6ccc(Cl)cc6Cl)O5)cc4)CC3)cc2)c1=O (centres unmarked) [Itraconazole]
- EC50 [1]: 0.0039 µM
- EC50 (WT)/EC50 (spt2^−) [1]: 282
- Growth (%) ([1]; spt2^− + 1 nM ITZ, 48 hours): 64.6%
- Growth (%) ([1]; spt2^− + 5 nM ITZ, 48 hours): 29.4%
- proliferation, % of control ([1]; spt2^−, 1˜10 nM ITZ, 48 hours): 28˜67%
- 5-dehydroepisterol (%) ([2]; spt2^− + 1 nM ITZ): 3.7%
- 14-methylfecosterol (%) ([2]; spt2^− + 1 nM ITZ): 59.4%
- Cholesterol (%) ([2]; spt2^− + 1 nM ITZ): 22.0%
- Episterol (%) ([2]; spt2^− + 1 nM ITZ): 1.6%
- Ergosterol (%) ([2]; spt2^− + 1 nM ITZ): 13.2%
- Lanosterol (%) ([2]; spt2^− + 1 nM ITZ): 0.1%
- Total sterols/cell ([2]; spt2^− + 1 nM ITZ): 4.0 × 10^8 /cell
- 5-dehydroepisterol (%) ([2]; spt2^− + 5 nM ITZ): 2.1%
- 14-methylfecosterol (%) ([2]; spt2^− + 5 nM ITZ): 75.2%
- Cholesterol (%) ([2]; spt2^− + 5 nM ITZ): 17.1%
- Episterol (%) ([2]; spt2^− + 5 nM ITZ): 0.4%
- Ergosterol (%) ([2]; spt2^− + 5 nM ITZ): 4.0%
- Lanosterol (%) ([2]; spt2^− + 5 nM ITZ): 1.2%
- Total sterols/cell ([2]; spt2^− + 5 nM ITZ): 4.4 × 10^8 /cell
- endogenous sterols ([2]; spt2^−, 1˜10 nM ITZ): 4˜6%
- EC50 [3, 10]: ~1.1 µM
- EC50 ([3]; LV39 WT grown in the presence of 10 μM MYR, read-out: EC50 for ITZ in WT + 10 μM myriocin): ~0.0046 µM
- EC50 ([3]; read-out: EC50 of ITZ in combination with 25 μM MYR): 0.00092 µM
- EC50 ([3]; read-out: EC50 of ITZ in combination with […] MYR): 0.131 µM
- Growth (%) ([3]; WT + 1 nM ITZ, 48 hours): 91.5%
- Growth (%) ([3]; WT + 5 nM ITZ, 48 hours): 81.6%
- growth, % of control ([3]; WT, 1˜10 nM ITZ, 48 hours): 75˜95%
- ITZ concentration causing significant reduction of insoluble GP63 at 4° C. ([4]; spt2^− parasites): higher than 1 nM
- GP63 in DRM ([4]; spt2^−, 1˜10 nM ITZ, 4° C., 45˜50% in control cells): 24˜28%
- ITZ concentration significantly inhibiting growth and DRM stability in WT ([5]; WT parasites): more than 100 nM
- GP63 in DRM ([5]; WT, 1˜10 nM ITZ, 4° C., 50˜55% in control cells): 40˜55%
- 5-dehydroepisterol (%) ([6]; WT + 1 nM ITZ): 9.6%
- 14-methylfecosterol (%) ([6]; WT + 1 nM ITZ): 62.3%
- Cholesterol (%) ([6]; WT + 1 nM ITZ): 2.9%
- Episterol (%) ([6]; WT + 1 nM ITZ): 0.9%
- Ergosterol (%) ([6]; WT + 1 nM ITZ): 24.3%
- Total sterols/cell ([6]; WT + 1 nM ITZ): 2.0 × 10^8 /cell
- 5-dehydroepisterol (%) ([6]; WT + 5 nM ITZ): 1.7%
- 14-methylfecosterol (%) ([6]; WT + 5 nM ITZ): 92.2%
- Cholesterol (%) ([6]; WT + 5 nM ITZ): 3.2%
- Ergosterol (%) ([6]; WT + 5 nM ITZ): 2.9%
- Total sterols/cell ([6]; WT + 5 nM ITZ): 3.3 × 10^8 /cell
- 14-methylfecosterol among all sterols ([6]; WT, 1˜10 nM ITZ): 80˜92%
- endogenous sterols ([6]; WT, 1˜10 nM ITZ): 4˜6%

Compound: CCCCCCC(=O)CCCCCC/C=C/C[C@@H](O)[C@H](O)[C@@](N)(CO)C(=O)O [MYR, myriocin]
- Effect of MYR on the efficacy of ITZ on amastigotes [7]: does not improve the efficacy of ITZ
- Sensitivity of ads1^− mutant in comparison to FV1 WT [8]: hypersensitive
- EC50 [3, 10]: ~55 µM
- EC50 ([3]; LV39 WT, 750 nM ITZ, read-out: EC50 of MYR in combination with 750 nM ITZ): 1.5 µM
- EC50 ([3]; read-out: EC50 for MYR in the presence of 0.5 μM ITZ, LV39 WT, 500 nM ITZ): ~1.8 µM
- EC50 ([3]; read-out: EC50 of MYR in combination with 250 nM ITZ, LV39 WT, 250 nM ITZ): 2.2 µM

Compound: CN(C/C=C/C#CC(C)(C)C)Cc1cccc2ccccc12 [Terbinafine]
- EC50 [1]: 3.3 µM
- EC50 (WT)/EC50 (spt2^−) [1]: 1.3
- Selectivity against spt2^− parasites (in words) ([1]; spt2^− versus LV39 WT): did not cause the extreme hypersensitivity
- Sensitivity of ads1^− mutant in comparison to FV1 WT [8]: very similar EC50s; also recorded: little or no selectivity
- EC50 [3, 10]: 4.3 µM
- Mislocalization of FcaBP-HA [9]: did not show such defect
